{"source": "patent US6489098B1", "about": "“Means and methods for monitoring nucleoside reverse transcriptase inhibitor antiretroviral therapy and guiding therapeutic decisions in the treatment of HIV/AIDS” (ViroLogic, Inc., priority 1998, dated 2002)", "key": {"[1]": {"system": "HIV-1 RT mutant resistance test vector V75I", "test": "Phenotypic susceptibility assay, site directed RTV V75I", "format": "cell-based", "conditions": "RTV with V75I vs wild type RTV", "description": "(§1) Resistance tests were carried out with resistance test vectors using two host cell types. Resistance test vector viral particles were produced by a first host cell (the resistance test vector host cell) that was prepared by transfecting a packaging host cell with the resistance test vector and the packaging expression vector. The resistance test vector viral particles were then used to infect a second host cell (the target host cell) in which the expression of the indicator gene is measured.\n(§2) The resistance test vectors containing a functional luciferase gene cassette were constructed and host cells were transfected with the resistance test vector DNA. The resistant test vectors contained patient-derived reverse transcriptase and protease sequences that were either susceptible or resistant to the antiretroviral agents, such as nucleoside reverse transcriptase inhibitors, non-nucleoside reverse transcriptase inhibitors and protease inhibitors. The resistance test vector viral particles produced by transfecting the resistance test vector DNA into host cells, either in the presence or absence of protease inhibitors, were used to infect target host cells grown either in the absence of NRTI or NNRTI or In the presence of increasing concentrations of the drug. […] The IC50 values were determined by plotting percent drug inhibition vs. log 10 drug concentration.\n(§3) Host cells were seeded in 10-cm-diameter dishes and were transfected several days after plating with resistance test vector plasmid DNA and the envelope expression vector. […] HIV capsid protein (p24) levels in the harvested cell culture media were determined by an EIA method as described by the manufacturer (SIAC; Frederick, Md.). […] The inhibitory effect of the drug was determined using the following equation: […]\n(§4) Genotypic changes that are observed to correlate with changes in phenotypic patterns of drug susceptibility are evaluated by construction of resistance test vectors containing the specific mutation on a defined, wild-type (drug susceptible) genetic background. […]"}, "[2]": {"system": "HIV-1 RT mutant resistance test vector V75I+Q151M", "test": "Phenotypic susceptibility assay, site directed RTV V75I+Q151M", "format": "cell-based", "conditions": "RTV with V75I+Q151M", "description": "as §1\n(§5) The resistance test vectors containing a functional luciferase gene cassette were constructed and host cells were transfected with the resistance test vector DNA. […] The IC50 values were determined by plotting percent drug inhibition vs. log 10 drug concentration.\nas §3"}, "[3]": {"system": "resistance test vectors containing five (M41L, D67N, K70R, T215Y, K219Q) or six (M41L, D67N, K70R, L210W, T215Y, K219Q) AZT resistance associated mutations", "test": "Phenotypic susceptibility assay, site directed RTVs with five or six AZT resistance associated mutations", "format": "cell-based, HIV-1", "description": "as §1, §5, §3"}, "[4]": {"system": "HIV-1 RT mutant resistance test vector V75V", "test": "Phenotypic susceptibility assay, site directed RTV V75V", "format": "cell-based", "conditions": "for effect on susceptibility (words): RTV with V75V", "description": "as §1, §2, §3, §4"}, "[5]": {"system": "HIV-1 RT mutant resistance test vector A62V+V75I", "test": "Phenotypic susceptibility assay, site directed RTV A62V+V75I", "format": "cell-based", "conditions": "RTV with A62V+V75I", "description": "as §1, §5, §3"}, "[6]": {"system": "HIV-1 RT mutant resistance test vector T69SSA and V75I", "test": "Phenotypic susceptibility assay, site directed RTV T69SSA+V75I", "format": "cell-based", "conditions": "V75I added onto the T69SSA background", "description": "as §1, §5, §3"}, "[7]": {"system": "RTV clone 285-1 (T69SSA) versus revertant 285-1 (SSA69T)", "test": "Phenotypic susceptibility assay, patient 285 clone and T69SSA revertant", "format": "cell-based, HIV-1", "conditions": "T69SSA→SSA69T in a clone of a patient's virus"}, "[8]": {"system": "HIV with RT mutation at codon 50", "conditions": "mutation at codon 50, in vitro; cited from earlier work"}, "[9]": {"system": "HIV isolates of 13 ZDV-naive patients", "conditions": "13 ZDV-naive patients followed for 18 to 22 months on d4T; d4T maximum; ZDV five patients; ddI three subjects; cited from earlier work"}, "HIV clinical isolates": {"system": "HIV clinical isolates", "conditions": "cited from earlier work"}, "[10]": {"system": "HIV with RT Leu74→Val mutation", "conditions": "cited from earlier work"}, "[11]": {"system": "HIV with M41L, L210W, T215Y plus M184V", "conditions": "cited from earlier work"}}, "note": "“Also recorded” adds a separate entry of the source.", "data": [{"smiles": "Cc1cn([C@H]2C=C[C@@H](CO)O2)c(=O)[nH]c1=O", "note": "[d4T, stavudine]", "values": [{"measurement": "effect on susceptibility (words)", "setting": "[1]", "value": "did not alter d4T susceptibility; also recorded: did not reduce d4T susceptibility; also recorded: had no affect on d4T susceptibility"}, {"measurement": "effect on susceptibility (words)", "setting": "[1]; listed as d4t", "value": "no effect on d4t-susceptibility"}, {"measurement": "effect on susceptibility (words)", "setting": "[2]", "value": "decreased susceptibility to d4T; also recorded: reduced d4T and AZT susceptibility"}, {"measurement": "effect on susceptibility (words)", "setting": "[3]", "value": "reduced susceptibility to d4T and AZT"}, {"measurement": "effect on susceptibility (words)", "setting": "[4]", "value": "did not reduce d4T susceptibility"}, {"measurement": "fold reduction in susceptibility", "setting": "[4]; RTV with V75V vs control RTV", "value": "less than two-fold"}, {"measurement": "effect on susceptibility (words)", "setting": "[5]", "value": "no differences in their susceptibility to d4T; also recorded: had no effect on d4T; also recorded: had no affect on d4T susceptibility"}, {"measurement": "effect on susceptibility (words)", "setting": "[6]", "value": "decreased susceptibility to d4T"}, {"measurement": "effect of reversion of the T69SSA mutation", "setting": "[7]", "value": "reduced d4T resistance"}, {"measurement": "fold reduction in sensitivity", "setting": "[8]", "value": 30, "unit": "fold"}, {"measurement": "fold decrease in sensitivity", "setting": "[9]", "value": "≤ 12", "unit": "fold"}]}, {"smiles": "Nc1ccn([C@H]2CC[C@@H](CO)O2)c(=O)n1", "note": "[ddC, zalcitabine]", "values": [{"measurement": "fold reduction in susceptibility for each ten-fold decrease in ZDV sensitivity", "setting": "HIV clinical isolates", "value": "two-fold"}, {"measurement": "fold reduction in sensitivity", "setting": "[10]", "value": "around ten-fold"}]}, {"smiles": "Cc1cn([C@H]2C[C@H](N=[N+]=[N-])[C@@H](CO)O2)c(=O)[nH]c1=O", "note": "[AZT, zidovudine]", "values": [{"measurement": "effect on susceptibility (words)", "setting": "[1]", "value": "increase in the susceptibility to AZT; also recorded: increased AZT susceptibility; also recorded: increased AZT susceptibility slightly"}, {"measurement": "effect on susceptibility (words)", "setting": "[3]", "value": "reduced susceptibility to d4T and AZT"}, {"measurement": "effect on susceptibility (words)", "setting": "[4]", "value": "increased AZT susceptibility slightly"}, {"measurement": "effect on susceptibility (words)", "setting": "[5]", "value": "slight increases in susceptibility to AZT; also recorded: did not alter the reduced level of AZT susceptibility caused by the V75I mutation"}, {"measurement": "effect on susceptibility (words)", "setting": "[6]", "value": "increased susceptibility to AZT"}]}, {"smiles": "Nc1nc(NC2CC2)c2ncn([C@H]3C=C[C@@H](CO)C3)c2n1", "note": "[ABC, abacavir]", "values": [{"measurement": "fold reduction in susceptibility", "setting": "[11]", "value": "eight fold"}]}, {"smiles": "O=c1[nH]cnc2c1ncn2[C@H]1CC[C@@H](CO)O1", "note": "[ddI, didanosine]", "values": [{"measurement": "fold reduction in susceptibility for each ten-fold decrease in ZDV sensitivity", "setting": "HIV clinical isolates", "value": 2.2, "unit": "fold"}]}]}
